# Measurements reported in patent US20080003684A1, “DIAGNOSTIC METHOD FOR MYOPATHY” (priority 2006, published 2008).
# Tests used:
# human skeletal muscle [1] = assay: Gene set enrichment analysis (GSEA) of muscle microarray data; settings: high dose statin treatment, FDR<0.25
# human skeletal muscle [2] = assay: Whole genome microarray analysis in muscle biopsies, single-gene analysis; settings: high dose statin treatment, criteria 1.5-fold change and p-value <0.05
# MYL5 = assay: RealTime Quantitative TaqMan PCR of muscle RNA; format: in vivo, human; settings: n=5, p=0.021
# Description: (§1) Based on a hierarchical cluster analysis (described in Example 1) 20 genes were selected for further RT-PCR control in order to identify a gene expression based fingerprint for statin effect on human skeletal muscle.
# (§2) The microarray expression results recorded in the simvastatin group (n=5, for one case there was not enough muscle RNA for PCR) were verified by RealTime Quantitative TaqMan PCR. Previously purified cRNA was used as starting material for cDNA synthesis. A 1000 ng-18 μl aliquote of cRNA was mixed with 1 μl Promega Random Primer (C1181, Promega U.S., Madison, Wis., USA) and incubated in +70° C. for 10 min. The following reagents were added leading to 25 μl total reaction volume: 1 μl of 10 μM dNTP blend (F09892, Applied Biosystems, Foster City, Calif., USA), 1 μl of Promega M-MLV Reverse Transcriptase 200 U/μl (M3682) and 4 μl of M-MLV RT 5× reaction buffer. Finally the incubations were performed in the following order: 10 min in RT, 50 min in 45° C., and, 10 min in 70° C. 10 μl volume was used for PCR reaction, consisting of 2 μl aliquote of 1:10 diluted cDNA sample, and, Abgene ABsolute 2×QPCR ROX mix (AB-1139, Abgene, Epsom, UK). The primer concentrations were 300 nM, probe concentrations for Universal Probe Library (Exiqon, Vedbaek, Denmark) probes 100 nM and for ordinary long probes 200 nM. Finally the PCR reactions were performed in rtPCR system (ABI Prism 7700 Sequence Detection System, Applied Biosystems) having the following PCR procedure: 95° C. for 15 min, and 40 cycles of 95° C. for 15 s and 60° C. for 1 min.
# COL3A1 = assay: RealTime Quantitative TaqMan PCR of muscle RNA; format: in vivo, human; settings: n=5, p=0.026
# Description: as §1, §2
# MYBPH = assay: RealTime Quantitative TaqMan PCR of muscle RNA; format: in vivo, human; settings: n=5, p=0.027
# Description: as §1, §2
# ALOX5AP = assay: RealTime Quantitative TaqMan PCR of muscle RNA; format: in vivo, human; settings: n=5, p=0.041
# Description: as §1, §2
# CCL5 = assay: RealTime Quantitative TaqMan PCR of muscle RNA; format: in vivo, human; settings: n=5, p=0.011
# Description: as §1, §2
Compound,number of pathways up-regulated / affected in GSEA (human skeletal muscle [1]),number of genes whose expression changed significantly during the intervention (human skeletal muscle [2]),MYL5 expression change by RT-PCR (MYL5),COL3A1 expression change by RT-PCR (COL3A1),MYBPH expression change by RT-PCR (MYBPH),ALOX5AP expression change by RT-PCR (ALOX5AP),CCL5 expression change by RT-PCR (CCL5),number of genes up-regulated (human skeletal muscle [2])
CC(C)c1c(C(=O)Nc2ccccc2)c(-c2ccccc2)c(-c2ccc(F)cc2)n1CC[C@@H](O)C[C@@H](O)CC(=O)O [atorvastatin],no pathways appeared to be affected significantly,five,,,,,,
CCC(C)(C)C(=O)O[C@H]1C[C@@H](C)C=C2C=C[C@H](C)[C@H](CC[C@@H]3C[C@@H](O)CC(=O)O3)[C@H]21 [simvastatin],143 pathways,111 genes,+8.0 fold,+27.1 fold,+49.0 fold,+3.6 fold,+11.9 fold,85 genes
